Molecules are shown by their SMILES. Like-named read-outs stand apart in the source and are kept apart here.

The record followed here is patent US20140005164A1, “WNT PATHWAY ANTAGONISTS” (Siena Biotech S.p.A., priority 2011, published 2014).

The subject of the assay is Wnt/β-catenin pathway. Nature of the assay: Wnt reporter assay (TCF-Luciferase, Firefly) in DBTRG-05MG cells. To be noted: Homo sapiens, read-out: IC50 value in the reporter assay. It is filed as cell-based. As to the method:
Three copies of a 4×TCF responsive elements were cloned into the pcDNA3.1/Zeo(+) vector (Invitrogen) after deletion of the constitutive CMV promoter and the insertion of the Firefly Luciferase from Promega (phFL-TK) to measure the activity of the Wnt/β-catenin pathway. The resulting plasmid was sequenced for quality control.
Cells were grown in 20 μg/ml Zeocin and 20 μg/ml Zeocin plus 30 μg/ml Hygromicin respectively. The cells were plated at a density of 6500 cells/well in poly-D-lysine pre-treated 96 well-plates.
36 hours after plating cells were incubated with 8-points dilutions compound (0.6% DMSO (v/v)). Each compound was tested in triplicate in single plate. Luciferase detection was done with Dual-Luciferase Reporter Assay System (Promega). 24 hours after compound addition, media was removed and 30 μl of 1× lysis buffer was added to each well for 30 minutes. To each well 45 μl of Dual-Glo Luciferase reagent (Promega) were added and after 1 second delay Luciferase was detected for 1 second using Mithras LB940 instrument. After Firefly luciferase quantification 45 μl of Dual Stop & Glo reagent (Promega) were added to each well and […] Renilla was detected using the same parameters described before.
Data were expressed as % of control for Firefly and Renilla luciferase independently; values were calculated using XLFit version 4.2, with a four parameters sigmoid function (XLFit model 205).

Where [1] appears, read: TCF-Luciferase (Firefly) read out, 24 hours after compound addition, range given with mixed units nM and μM.

With `Cn1c(=O)n(C[C@H]2CC[C@H](C(=O)Nc3ccncc3)CC2)c2nc(OCC#N)ccc21` [Example 167], the half-maximal inhibitory concentration (IC50) under setting [1] was 35 to 23000 nM.

In the case of `COc1ccc2c(c1)n(C[C@H]1CC[C@H](C(=O)Nc3cncnc3)CC1)c(=O)n2C` [Example 103], under setting [1], the IC50 is 35 to 23000 nM.

Turning to `COc1ccc2c(c1)n(C[C@H]1CC[C@H](C(=O)N3CCN(c4ccc(C(F)(F)F)nc4)CC3)CC1)c(=O)n2C` [Example 90], the IC50 under setting [1] fell in the range of 35 to 23000 nM.

In the case of `COc1ccc2c(c1)n(C[C@H]1CC[C@H](C(=O)N3CCN(c4ccc(C)nc4)CC3)CC1)c(=O)n2C` [Example 93], the IC50 under setting [1] lay within 35 to 23000 nM.

With `COCCOc1cc(NC(=O)[C@H]2CC[C@H](Cn3c(=O)n(C)c4ccc(OC)cc43)CC2)ccn1` [Example 36], the concentration for half-maximal inhibition (IC50) under setting [1] is 35 to 23000 nM.

For `COCCOc1cc(NC(=O)[C@H]2CC[C@H](Cn3c(=O)n(C)c4cc(Cl)ccc43)CC2)ccn1` [Example 57], under setting [1], the IC50 was 35 to 23000 nM.

As to `COc1cc2c(cc1F)n(C)c(=O)n2C[C@H]1CC[C@H](C(=O)Nc2ccncn2)CC1` [Example 159], the half-inhibitory concentration (IC50) under setting [1] lay within 35 to 23000 nM.

On to `COc1cc2c(cc1F)n(C)c(=O)n2C[C@H]1CC[C@H](C(=O)N2CC=C(c3cnn(C)c3)CC2)CC1` [Example 143], for which the concentration for half-maximal inhibition (IC50) under setting [1] fell in the range of 35 to 23000 nM.

`COc1ccc2c(c1)n(C[C@H]1CC[C@H](C(=O)N3CCN(C(=O)[C@@H]4CCC(=O)O4)CC3)CC1)c(=O)n2C` [Example 74]: the half-inhibitory concentration (IC50) under setting [1] lay in the range of 35 to 23000 nM.

As for `CCOc1ccc2c(c1)n(C[C@H]1CC[C@H](C(=O)Nc3ccncc3)CC1)c(=O)n2C` [Example 17], the IC50 under setting [1] was in the range of 35 to 23000 nM.

Regarding `COc1ccc2c(c1)n(C[C@H]1CC[C@H](C(=O)N3CCN(c4cnn(C)c4)CC3)CC1)c(=O)n2C` [Example 141], the half-inhibitory concentration (IC50) under setting [1] lay in the range of 35 to 23000 nM.

With `Cc1cc(NC(=O)[C@H]2CC[C@H](Cn3c(=O)n(C)c4ccc(Cl)cc43)CC2)ccn1` [Example 39], the IC50 under setting [1] was in the range of 35 to 23000 nM.

As for `Cn1cc(-c2nnc([C@H]3CC[C@H](Cn4c(=O)n(C)c5ccc(C#N)cc54)CC3)o2)cn1` [Example 162], the IC50 under setting [1] is 35 to 23000 nM.

For `COc1ccc2c(c1)n(C[C@H]1CC[C@H](C(=O)Nc3cccnc3)CC1)c(=O)n2C` [Example 37], the IC50 under setting [1] lay in the range of 35 to 23000 nM.

As for `COc1ccc2c(c1)n(C[C@H]1CC[C@H](C(=O)N3CCN(c4ccc(F)nc4)CC3)CC1)c(=O)n2C` [Example 89], under setting [1], the IC50 fell in the range of 35 to 23000 nM.

As to `COc1cc2c(cc1F)n(C)c(=O)n2C[C@H]1CC[C@H](C(=O)N2C[C@@H](C)O[C@@H](C)C2)CC1` [Example 179], the IC50 under setting [1] fell in the range of 35 to 23000 nM.

Take `Cn1c(=O)n(C[C@H]2CC[C@H](C(=O)N3CCN(c4cnccn4)CC3)CC2)c2cc(C#N)ccc21` [Example 155]: the IC50 under setting [1] was in the range of 35 to 23000 nM.

`COc1cc2c(cc1Cl)n(C[C@H]1CC[C@H](C(=O)N3CCN(c4ncccn4)CC3)CC1)c(=O)n2C` [Example 46]: the IC50 under setting [1] fell in the range of 35 to 23000 nM.

With `COc1ccc2c(c1)n(C[C@H]1CC[C@H](C(=O)Nc3ccncn3)CC1)c(=O)n2C` [Example 104], the IC50 under setting [1] lay within 35 to 23000 nM.

`COc1ccc2c(c1)n(C[C@H]1CC[C@H](C(=O)N3CCN(c4cccc(OC)n4)CC3)CC1)c(=O)n2C` [Example 65]: the IC50 under setting [1] fell in the range of 35 to 23000 nM.

For `COc1ccc2c(c1)n(C[C@H]1CC[C@H](C(=O)N3CCC(c4cnccn4)CC3)CC1)c(=O)n2C` [Example 83], the concentration for half-maximal inhibition (IC50) under setting [1] is 35 to 23000 nM.

In the case of `Cn1c(=O)n(C[C@H]2CC[C@H](C(=O)Nc3ccnnc3)CC2)c2[nH]c(=O)ccc21` [Example 9, Trans-4-(1-Methyl-2,5-dioxo-1,2,4,5-tetrahydro-imidazo[4,5-b]pyridin-3-ylmethyl)-cyclohexanecarboxylic acid pyridazin-4-ylamide], the IC50 under setting [1] fell in the range of 35 to 23000 nM.

`Cn1c(=O)n(C[C@H]2CC[C@H](C(=O)N3CCN(c4ccncc4)CC3)CC2)c2cc(C#N)ccc21` [Example 123]: the IC50 under setting [1] was in the range of 35 to 23000 nM.

For the compound `Cn1c(=O)n(C[C@H]2CC[C@H](C(=O)Nc3ccncc3)CC2)c2nc(Br)ccc21` [Example 116], the IC50 under setting [1] lay in the range of 35 to 23000 nM.

In the case of `CN(C)c1ccc2c(n1)n(C[C@H]1CC[C@H](C(=O)Nc3ccncc3)CC1)c(=O)n2C` [Example 120], the IC50 under setting [1] is 35 to 23000 nM.

With `COc1ccc2c(c1)n(C[C@H]1CC[C@H](c3noc(-c4cccnc4)n3)CC1)c(=O)n2C` [Example 172], the IC50 under setting [1] lay within 35 to 23000 nM.

Turning to `COCCOc1cc2c(cc1F)n(C)c(=O)n2C[C@H]1CC[C@H](C(=O)Nc2ccnnc2)CC1` [Example 176], under setting [1], the IC50 lay in the range of 35 to 23000 nM.

With `CCC(=O)CN1CCN(C(=O)[C@H]2CC[C@H](Cn3c(=O)n(C)c4ccc(OC)cc43)CC2)CC1=O` [Example 7, 5-Methoxy-1-methyl-3-{trans-4-[3-oxo-4-(2-oxo-butyl)-piperazine-1-carbonyl]-cyclohexylmethyl}-1,3-dihydro-benzoimidazol-2-one], under setting [1], the IC50 was in the range of 35 to 23000 nM.

With `COc1ccc2c(c1)n(C[C@H]1CC[C@H](C(=O)Nc3ccnnc3)CC1)c(=O)n2C` [Example 100], the 50% inhibitory concentration (IC50) under setting [1] was in the range of 35 to 23000 nM.

As for `COCCOc1cc(NC(=O)[C@H]2CC[C@H](Cn3c(=O)n(C)c4ccc(Cl)cc43)CC2)ccn1` [Example 40], under setting [1], the half-maximal inhibitory concentration (IC50) lay within 35 to 23000 nM.

As for `COc1ccc2c(c1)n(C[C@H]1CC[C@H](C(=O)N3CCC(C(C)=O)CC3)CC1)c(=O)n2C` [Example 81], under setting [1], the IC50 is 35 to 23000 nM.

`Cn1c(=O)n(C[C@H]2CC[C@H](C(=O)Nc3ccncc3)CC2)c2nc(NCc3cccnc3)ccc21` [Example 126]: the IC50 under setting [1] fell in the range of 35 to 23000 nM.

Consider `COCCOCCOc1ccc2c(c1)n(C[C@H]1CC[C@H](C(=O)Nc3ccncc3)CC1)c(=O)n2C` [Example 129], for which the 50% inhibitory concentration (IC50) under setting [1] was in the range of 35 to 23000 nM.

Turning to `COCCOc1cc2c(cc1F)n(C)c(=O)n2C[C@H]1CC[C@H](C(=O)N2CCOCC2)CC1` [Example 177], the IC50 under setting [1] lay in the range of 35 to 23000 nM.

In the case of `COc1ccc2c(c1)n(C[C@H]1CC[C@H](C(=O)Nc3nc4ccccc4s3)CC1)c(=O)n2C` [Example 187], the IC50 under setting [1] lay within 35 to 23000 nM.

As to `COc1ccc2c(c1)n(C[C@H]1CC[C@H](c3cc(-c4ccncc4)n[nH]3)CC1)c(=O)n2C` [Example 13, 5-Methoxy-1-methyl-3-[trans-4-(5-pyridin-4-yl-2H-pyrazol-3-yl)-cyclohexylmethyl]-1,3-dihydro-benzoimidazol-2-one], the IC50 under setting [1] is 35 to 23000 nM.

Take `COCCOc1ccc2c(n1)n(C[C@H]1CC[C@H](c3nnc(-c4cccnc4)o3)CC1)c(=O)n2C` [Example 181]: under setting [1], the IC50 lay within 35 to 23000 nM.

Consider `COc1ccc2c(c1)n(C[C@H]1CC[C@H](C(=O)Nc3cccc(C)n3)CC1)c(=O)n2C` [Example 34], for which the 50% inhibitory concentration (IC50) under setting [1] was in the range of 35 to 23000 nM.

`Cn1c(=O)n(C[C@H]2CC[C@H](C(=O)Nc3ccncc3)CC2)c2nc(OCC3CCCCO3)ccc21` (stereo partly shown) [Example 168]: the 50% inhibitory concentration (IC50) under setting [1] is 35 to 23000 nM.

For the compound `Cc1cc(NC(=O)[C@H]2CC[C@H](Cn3c(=O)n(C)c4c(Cl)cccc43)CC2)ccn1` [Example 49], under setting [1], the 50% inhibitory concentration (IC50) is 35 to 23000 nM.

As for `COCCN(C)c1ncc2c(n1)n(C[C@H]1CC[C@H](C(=O)Nc3ccncc3)CC1)c(=O)n2C` [Example 8, Trans-4-{2-[(2-Methoxy-ethyl)-methyl-amino]-7-methyl-8-oxo-7,8-dihydro-purin-9-ylmethyl}-cyclohexanecarboxylic acid pyridine-4-ylamide], for the setting “24 h”, the IC50 fell in the range of 35 to 23000 nM.

On to `COc1ccc2c(c1)n(C[C@H]1CC[C@H](C(=O)Nc3ccc(N4C[C@@H](C)O[C@@H](C)C4)nc3)CC1)c(=O)n2C` [Example 64], for which, under setting [1], the IC50 lay in the range of 35 to 23000 nM.

With `Cn1c(=O)n(C[C@H]2CC[C@H](C(=O)N3CCN(c4ncccn4)CC3)CC2)c2c(Cl)cccc21` [Example 21], the IC50 under setting [1] fell in the range of 35 to 23000 nM.

Regarding `COCCN(C)c1ccc2c(n1)n(C[C@H]1CC[C@H](C(=O)Nc3ccncc3)CC1)c(=O)n2C` [Example 108], the half-inhibitory concentration (IC50) under setting [1] lay within 35 to 23000 nM.

For the compound `Cn1c(=O)n(C[C@H]2CC[C@H](C(=O)Nc3ccncc3)CC2)c2cc(OCCCC#N)ccc21` [Example 136], under setting [1], the IC50 fell in the range of 35 to 23000 nM.

As for `COc1ccc2c(c1)n(C[C@H]1CC[C@H](C(=O)N3CCN(c4cncnc4)CC3)CC1)c(=O)n2C` [Example 20, 5-Methoxy-1-methyl-3-[trans-4-(4-pyrimidin-5-yl-piperazine-1-carbonyl)-cyclohexylmethyl]-1,3-dihydro-benzoimidazol-2-one], the concentration for half-maximal inhibition (IC50) under setting [1] is 35 to 23000 nM.

Consider `COc1ccc(COc2ccc3c(c2)n(C[C@H]2CC[C@H](C(=O)Nc4ccncc4)CC2)c(=O)n3C)cc1` [Example 6, Trans-4-[6-(4-Methoxy-benzyloxy)-3-methyl-2-oxo-2,3-dihydro-benzoimidazol-1-ylmethyl]-cyclohexanecarboxylic acid pyridin-4-ylamide], for which the IC50 under setting [1] lay within 35 to 23000 nM.

In the case of `Cn1c(=O)n(C[C@H]2CC[C@H](C(=O)Nc3ccncc3)CC2)c2cc(Br)ccc21` [Example 111], the IC50 under setting [1] was in the range of 35 to 23000 nM.

`COc1ccc2c(c1)n(C[C@H]1CC[C@H](C(=O)Nc3ccnc(C)c3)CC1)c(=O)n2C` [Example 33]: the half-inhibitory concentration (IC50) under setting [1] fell in the range of 35 to 23000 nM.

Turning to `COc1ccc2c(c1)n(C[C@H]1CC[C@H](c3nnc(-c4cc(C)on4)o3)CC1)c(=O)n2C` [Example 131], the IC50 under setting [1] is 35 to 23000 nM.

As for `COc1ccc2c(c1)n(C[C@H]1CC[C@H](c3nnc(-c4cnc(C)cn4)o3)CC1)c(=O)n2C` [Example 128], under setting [1], the IC50 was in the range of 35 to 23000 nM.

With `COc1ccc2c(c1)n(C[C@H]1CC[C@H](c3nnc(-c4ccc(C)nc4)o3)CC1)c(=O)n2C` [Example 98], the half-inhibitory concentration (IC50) under setting [1] lay within 35 to 23000 nM.
